Data set [1] has as its target T1, Tumor necrosis factor (Homo sapiens, UniProt P01375).
Description: Binding affinity to biotinylated human TNFalpha trimer (77 to 233 residues) expressed in Escherichia coli BL21(DE3) by SPR analysis
Data set [2] addresses T1, Tumor necrosis factor. This is another data set of the same source.
Description: Inhibition of probe-5 binding to human TNFalpha (77 to 233 residues) at 1 nM by fluorescence polarization assay
Data set [3] addresses T1, Tumor necrosis factor. Particulars: dose 1.0 nM, TDE = time-dependent effect.
Data set [4] in a line: Intrinsic clearance in mouse liver microsomes. Format: ADME, Microsome. Particulars: read-out: CLH (converted). On the technique in general: Liver microsomes are a subcellular fraction often used to study metabolism.
Data set [5] in a line: Intrinsic clearance in human liver microsomes. Format: ADME, Microsome. Particulars: read-out: CLH (converted).
Data set [6] can be described thus: Solubility in phosphate buffer at pH 7.4. Format: physicochemical.
Data set [7] in a line: Fraction unbound in plasma (unknown origin). The class given is ADME, cell-free.
Data set [8] in a line: Half life in CD1 mouse at 1 mg/kg, iv after 24 hrs by HPLC-MS/MS analysis. Particulars: in vivo. Format: ADME, organism-based.
Data set [9] in a line: Volume of distribution at steady state in CD1 mouse at 1 mg/kg, iv after 24 hrs by HPLC-MS/MS analysis. The class given is ADME, organism-based. The conditions noted are these: in vivo, read-out: Vdss.
The nature of data set [10]: AUC in CD1 mouse at 1 mg/kg, iv after 24 hrs by HPLC-MS/MS analysis. Format: ADME, organism-based. Further details: route intravenous, dose 1 mg/kg, time 24 hrs. The conditions noted are these: in vivo.
The nature of data set [11]: Blood clearance in CD1 mouse at 1 mg/kg, iv after 24 hrs by HPLC-MS/MS analysis. Format: ADME, organism-based.
Data set [12] is described as follows: Unbound clearance in CD1 mouse at 1 mg/kg, iv after 24 hrs by HPLC-MS/MS analysis. Format: ADME, organism-based. The conditions noted are these: in vivo.
Data set [13] can be described thus: Half life in CD1 mouse at 1 mg/kg, po after 24 hrs by HPLC-MS/MS analysis. The conditions noted are these: in vivo. The class given is ADME, organism-based.
Data set [14] in a line: Cmax in CD1 mouse at 1 mg/kg, po after 24 hrs by HPLC-MS/MS analysis. The class given is ADME, organism-based. Further details: route oral, dose 1 mg/kg, time 24 hrs. Particulars: in vivo.
The nature of data set [15]: Tmax in CD1 mouse at 1 mg/kg, po after 24 hrs by HPLC-MS/MS analysis. Particulars: in vivo. The class given is ADME, organism-based.
A short description of data set [16]: AUC in CD1 mouse at 1 mg/kg, po after 24 hrs by HPLC-MS/MS analysis. The class given is ADME, organism-based. Further details: route oral, time 24 hrs, dose 1 mg/kg. The conditions noted are these: in vivo.
Data set [17] is described as follows: Unbound AUC in CD1 mouse at 1 mg/kg, po after 24 hrs by HPLC-MS/MS analysis. Format: ADME, organism-based. The conditions noted are these: in vivo.
The nature of data set [18]: Oral bioavailability in CD1 mouse at 1 mg/kg after 24 hrs by HPLC-MS/MS analysis. The class given is ADME, organism-based. The conditions noted are these: in vivo.
The target in data set [19] is T1, Tumor necrosis factor. This is another data set of the same source.
Description: Binding affinity to biotinylated human TNFalpha trimer (77 to 233 residues) expressed in Escherichia coli BL21(DE3) assessed as binding half life by SPR analysis
Data set [20] has as its target T1, Tumor necrosis factor. This is another data set of the same source.
Description: Induction of stabilization of biotinylated human TNFalpha trimer (77 to 233 residues) expressed in Escherichia coli BL21(DE3) assessed as change in melting temperature
Another data set has as its system Mus musculus. The experiment in a line: Antiarthritic activity in DBA/J mouse model of CFA and glucose-6-phosphate isomerase-induced arthritis model assessed as inhibition of paw swelling at 30 to 100 mg/kg, po BID beginning 1 hr prior to GPI immunization and measured on days 13, 15, and 17 after GPI immunization. Format: functional, organism-based. The conditions noted are these: dose 30-100 mg/kg, time 13-17 day.

Data set [21] in a line: Drug uptake in DBA/J mouse model of CFA and glucose-6-phosphate isomerase-induced arthritis model at 10 to 100 mg/kg, po BID beginning 1 hr prior to GPI immunization and measured up to day 17 after GPI immunization by HPLC-MS/MS analysis. The class given is ADME, organism-based. Particulars: in vivo, 408 h, dose 10-100 mg/kg, time 17 day.
The nature of data set [22]: Cmax in DBA/J mouse model of CFA and glucose-6-phosphate isomerase-induced arthritis model at 10 mg/kg, po BID beginning 1 hr prior to GPI immunization and measured up to day 17 after GPI immunization by HPLC-MS/MS analysis. The class given is ADME, organism-based. Further details: route oral, time 17 day, dose 10 mg/kg. Particulars: in vivo.
The nature of data set [23]: Cmax in DBA/J mouse model of CFA and glucose-6-phosphate isomerase-induced arthritis model at 30 mg/kg, po BID beginning 1 hr prior to GPI immunization and measured up to day 17 after GPI immunization by HPLC-MS/MS analysis. The class given is ADME, organism-based. Further details: route oral, time 17 day, dose 30 mg/kg. Particulars: in vivo.
Data set [24] can be described thus: Cmax in DBA/J mouse model of CFA and glucose-6-phosphate isomerase-induced arthritis model at 100 mg/kg, po BID beginning 1 hr prior to GPI immunization and measured up to day 17 after GPI immunization by HPLC-MS/MS analysis. The class given is ADME, organism-based. Further details: route oral, time 17 day, dose 100 mg/kg. Particulars: in vivo.
Data set [25] is described as follows: AUC (0 to 12 hrs) in DBA/J mouse model of CFA and glucose-6-phosphate isomerase-induced arthritis model at 10 mg/kg, po BID beginning 1 hr prior to GPI immunization and measured up to day 17 after GPI immunization by HPLC-MS/MS analysis. The conditions noted are these: in vivo. The arrangement: route oral, time 17 day, dose 10 mg/kg. The class given is ADME, organism-based.

Data set [26] is described as follows: AUC (0 to 12 hrs) in DBA/J mouse model of CFA and glucose-6-phosphate isomerase-induced arthritis model at 30 mg/kg, po BID beginning 1 hr prior to GPI immunization and measured up to day 17 after GPI immunization by HPLC-MS/MS analysis. Format: ADME, organism-based. Further details: route oral, time 17 day, dose 30 mg/kg. The conditions noted are these: in vivo.

The nature of data set [27]: AUC (0 to 12 hrs) in DBA/J mouse model of CFA and glucose-6-phosphate isomerase-induced arthritis model at 100 mg/kg, po BID beginning 1 hr prior to GPI immunization and measured up to day 17 after GPI immunization by HPLC-MS/MS analysis. Format: ADME, organism-based. The arrangement: route oral, dose 100 mg/kg, time 17 day. Particulars: in vivo.
Data set [28] in a line: Selectivity index, ratio of Cmax in DBA/J mouse model of CFA and glucose-6-phosphate isomerase-induced arthritis model at 10 mg/kg, po BID beginning 1 hr prior to GPI immunization and measured up to day 17 after GPI immunization by HPLC-MS/MS analysis to EC50 for inhibition of TNFalpha in mouse L929 cells exposed to compound incubated for 1 hr with mouse TNFalpha by luminescence based assay. The conditions noted are these: time 17 day.

Data set [29] is described as follows: Selectivity index, ratio of Cmax in DBA/J mouse model of CFA and glucose-6-phosphate isomerase-induced arthritis model at 30 mg/kg, po BID beginning 1 hr prior to GPI immunization and measured up to day 17 after GPI immunization by HPLC-MS/MS analysis to EC50 for inhibition of TNFalpha in mouse L929 cells exposed to compound incubated for 1 hr with mouse TNFalpha by luminescence based assay. Particulars: time 17 day.

The nature of data set [30]: Selectivity index, ratio of Cmax in DBA/J mouse model of CFA and glucose-6-phosphate isomerase-induced arthritis model at 100 mg/kg, po BID beginning 1 hr prior to GPI immunization and measured up to day 17 after GPI immunization by HPLC-MS/MS analysis to EC50 for inhibition of TNFalpha in mouse L929 cells exposed to compound incubated for 1 hr with mouse TNFalpha by luminescence based assay.

The source of these data is ChEMBL document CHEMBL4765484, “Development of Orally Efficacious Allosteric Inhibitors of TNFα via Fragment-Based Drug Design” (J Med Chem, 2021).

Values after ≈ are worked out from the molar mass of the structure shown. Active and inactive are the calls of the source.

T1 sequence (P01375 whole entry): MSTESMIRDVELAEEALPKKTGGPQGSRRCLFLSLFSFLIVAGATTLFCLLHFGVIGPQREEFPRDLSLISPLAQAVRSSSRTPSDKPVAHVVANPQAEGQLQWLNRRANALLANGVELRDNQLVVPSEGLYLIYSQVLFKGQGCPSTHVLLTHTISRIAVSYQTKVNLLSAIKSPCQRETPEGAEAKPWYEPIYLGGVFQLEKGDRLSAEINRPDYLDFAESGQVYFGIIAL

With `Cc1ccc(Cn2cnc3ccccc32)c(C)c1`, at Tumor necrosis factor [1], the Kd (usually the equilibrium constant for the complex coming apart) was 106000 nM.
In turn, `c1ccc(Cn2cnc3ccccc32)cc1` showed a Kd at Tumor necrosis factor [1] of 300000 nM. Further, the IC50 – broadly, the concentration at which inhibition is half-maximal – against Tumor necrosis factor [2] was found to be 204000 nM.
Consider `O=C(NCCOCCOCCOCc1ccc(-c2cccc3ccncc23)c(OCCc2ccc(-c3cccc4ccncc34)cc2)c1)c1ccc2c(c1)C(=O)OC21c2cc(F)c(O)cc2Oc2cc(O)c(F)cc21`, for which, on Tumor necrosis factor [3], the Activity result was “Tde”.
`C[C@@H]1CN(c2ncc(-c3ccc4c(c3)N(Cc3ccccc3OC(F)F)C(C)(C)C4=O)cn2)CCN1C(=O)CO`: the CLint scaled is 1680 mL/min/kg in [4] and 2280 mL/min/kg in data set [5]. For the same compound, the solubility (as a rule, the dissolved amount per volume that the medium holds) in data set [6] came to 1.2 µM (≈ 0.662 µg/mL). Besides, the fraction unbound (as a rule, free concentration divided by total concentration) in [7] stood at 0.00293. Further, the figures for the half-life in [8] and in data set [13] were 4.4 h and 4.7 h, respectively. In addition, in data set [9], the Vd was 2.12 L/kg. In addition, the AUC at 24 h worked out at 3110 ng·h/mL in data set [10] and 2340 ng·h/mL in data set [16]. In data set [11], the clearance – broadly, a measure of how efficiently the substance is removed, as volume per time – was 6.15 mL/min/kg. For the same compound, the CL free in data set [12] amounted to 2100 mL/min/kg. Besides, in data set [14], the Cmax came out at 200 ng/mL. In data set [15], the Tmax (as a rule, the time at which the peak concentration occurs) worked out at 1.8 h. Besides, the fAUC in data set [17] came to 6.86 ng·h/mL. For the same compound, the bioavailability – broadly, dose-corrected exposure relative to a reference, in per cent – in [18] worked out at 75.4%. At Tumor necrosis factor [1], binding was put at a Kd of 1.3 nM. Moreover, the midpoint of inhibition against Tumor necrosis factor [2], the IC50, lay at 189 nM. The same compound gave a T1/2 at Tumor necrosis factor [19] of 42.8 h.
`c1ccc(-c2cccc3ccncc23)cc1` returned a Kd on Tumor necrosis factor [1] of 60000 nM. At Tumor necrosis factor [2], this compound returned an IC50 of 25300 nM.
`c1ccc(-c2cccc3ccncc23)c(OCCc2ccc(-c3cccc4ccncc34)cc2)c1`: binding on Tumor necrosis factor [1] was characterised by a dissociation constant (Kd) of 74 nM. At Tumor necrosis factor [2], this compound showed a 50% inhibitory concentration (IC50) of 1350 nM. In addition, the ΔTm – broadly, the change in melting temperature against a reference sample – on Tumor necrosis factor [20] is 7 °C.
On the same counts, the results for `N#CCc1ccc(-c2cccc3ccncc23)cc1` are 2700 nM, 7960 nM and 4 °C.
`CN1CCN(Cc2ccc(-c3c[nH]c4ccncc34)c(OCCc3ccc(-c4cccc5ccncc45)cc3)c2)CC1` came in with a Kd on Tumor necrosis factor [1] of 2.4 nM. Also, at Tumor necrosis factor [2], it took 29 nM to reach half-maximal inhibition (IC50). In addition, the ΔTm at Tumor necrosis factor [20] was greater than 15 °C.
As to `Cc1nc2ccccc2n1Cc1ccccc1`, the affinity at Tumor necrosis factor [1], expressed as Kd, was 325000 nM.
`CC1(C)C(=O)c2ccc(-c3cnc(N4CCN5C(=O)NC[C@@H]5C4)nc3)cc2N1Cc1cccnc1C#N`: the values for the half-life in data set [8] and in [13] were 1.1 h and 1.6 h, respectively. Besides, the Vd in data set [9] was 2.12 L/kg. The AUC at 24 h amounted to 523 ng·h/mL in data set [10] and 263 ng·h/mL in data set [16]. In addition, in [11], the clearance is 32 mL/min/kg. In data set [12], this compound registered a CL free of 198 mL/min/kg. Further, the Cmax amounted to 81.7 ng/mL in [14], 767 ng/mL in [22], 2980 ng/mL in data set [23] and 6190 ng/mL in [24]. Also, the Tmax in [15] came out at 1 h. Also, the fAUC in data set [17] is 42.4 ng·h/mL. This compound also displayed a bioavailability in data set [18] of 50.4%. The outcome in the data set on Mus musculus was Active. In data set [21], the Drug uptake entry is reported as “Dose-dependent effect”. Further, the AUC at 408 h is 3830 ng·h/mL in [25], 10200 ng·h/mL in data set [26] and 46300 ng·h/mL in data set [27]. Besides, the Ratio in data set [28] is 2.1; in data set [29], 8.3; in data set [30], 17. The compound also had a Kd on Tumor necrosis factor [1] of 6.8 nM. The compound also gave an IC50 on Tumor necrosis factor [2] of 71 nM. Further, on Tumor necrosis factor [19], the T1/2 stood at 0.9 h.
Regarding `C[C@@H]1CN(c2ncc(-c3ccc4c(c3)N(Cc3cccnc3C#N)C(C)(C)C4=O)cn2)CCN1C(=O)CO`, in [6], the solubility came out at 48.4 µM (≈ 24.8 µg/mL). In data set [7], this compound came in with a fraction unbound of 0.137. For the same compound, the half-life – broadly, the time needed for the level to fall by half in the phase considered – in data set [8] is 1.4 h; in [13], 2 h. Moreover, in data set [9], the Vd was 17.3 L/kg. The AUC at 24 h was determined as 124 ng·h/mL in data set [10] and 62.7 ng·h/mL in data set [16]. The same compound showed a clearance in data set [11] of 146 mL/min/kg. This compound also returned a CL free in [12] of 955 mL/min/kg. Also, in [14], the Cmax worked out at 16.7 ng/mL. For the same compound, the Tmax in data set [15] was 1 h. This compound also registered a fAUC in [17] of 9.6 ng·h/mL. The compound further gave a bioavailability in data set [18] of 50.8%. Besides, the affinity at Tumor necrosis factor [1], expressed as Kd, was 7.3 nM. On Tumor necrosis factor [2], this compound registered an IC50 of 163 nM. The T1/2 on Tumor necrosis factor [19] worked out at 62.3 h.
